In one test the test system is Pf NF54 female gametes. Nature of the test: Dual gamete formation assay, female gamete formation. Format: cell-based, Plasmodium falciparum. The settings on record: carry-over and wash-out. The protocol: Pf NF54 gametocytes were generated as reported elsewhere ([Delves et al., 2016]). Briefly, static cultures of unsynchronized asexual parasites were continuously maintained as above. Parasites were cultured at 1% ring-stage parasitemias and 4% (v/v) hematocrit prior to the induction of gametocytes. To prepare gametocytes, 75% of the media was replaced daily for 14 subsequent days without adding fresh RBCs. During this process the temperature was kept strictly constant, as the rate of exflagellation is highly temperature-dependent. Between days 1 and 4 after culture induction, the asexual parasitemias increased rapidly to a peak. By day 7, as the asexual population waned, early-stage gametocytes became observable. By day 8, gametocyte maturation had progressed, and by day 14 morphologically distinguishable, mature stage V male and female gametocytes were present. […] Control reactions contained DMSO or 20 μM methylene blue (as negative and positive controls, respectively). […] After imaging, the plate was incubated at 18°C for a further 24 h to allow female gametes to maximally express Pfs25, followed by fluorescence microscopy imaging using a 10× objective. Both time lapse images of exflagellation and fluorescence images of female gametes were automatically quantified using custom scripts in ICY BioImage Analysis ([Delves et al., 2016]).

Test [1] deals with T1, cGMP-dependent protein kinase (PKG) (PF3D7_1436600) (Plasmodium falciparum, UniProt Q8I719).
T1 construct: The beads were incubated at 4°C for 1 h with either 0.1 ml (0.3 mg) Pf blood stage extract; endogenous in cells; host or cells: P. falciparum asexual blood-stage parasites (trophozoite stage), saponin-freed and lysed
Nature of the test: Competitive chemoproteomics in Pf lysates (Kinobeads / bead-immobilized compound). Format: binding. The note with it: lysates exposed to 40 μM of the same compound vs vehicle.
Protocol: Parasite cultures at the trophozoite stage were harvested, washed twice in RPMI 1640 medium (Gibco), and lysed by the addition of saponin to a final concentration of 0.1% for 5 min at room temperature. Free parasites were sedimented by centrifugation (3500 rpm for 10 min), washed three times with phosphate-buffered saline, and stored at −80°C. Parasites were resuspended in cell lysis buffer (50 mM tris-HCl (pH 7.5), 5% glycerol, 1.5 mM MgCl2, 1.5 mM NaCl, 1 mM Na3PO4, 25 mM sodium fluoride, 0.8% NP-40, EDTA-free protease inhibitor cocktail tablets (Roche Diagnostics), and 1 mM DTT) and disrupted by sonication (Sonics Vibra-Cell) using two 30-s cycles on ice at half-amplitude. […]
Kinobeads were prepared by immobilizing Bis-(III) indolyl-maleimide, purvalanol B, staurosporine and CZC8004, and the analogs of PD173955, sunitinib and vandetanib on NHS-activated Sepharose 4 beads (Amersham) ([Bantscheff et al., 2007]). […] 10 samples were measured in parallel (TMT 10-plex ([Werner et al., 2014])) to generate values for the affinity of the beads to the bound proteins (“depletion” values, 4 samples) and to generate IC50 values (6 samples) in a single experiment. Apparent dissociation constants were determined after accounting for protein depletion by the beads ([Bantscheff et al., 2011]). […]

The next test deals with ed. Dd2-B2 TKL3I1250M. Nature of the test: 72-h ABS assay, CRISPR/Cas9-edited line. The note with it: Plasmodium falciparum, parent Dd2-B2 wild-type. In kind it is cell-based. The protocol:
(§1) Synchronicity was achieved using three rounds of sorbitol treatment on early rings, spaced 48 h apart, followed by magnetic purification of segmented schizonts following the final sorbitol treatment. Parasites were highly synchronous to within a 3 h window of development. Assays were repeated on at least three independent occasions (each with technical duplicates) and statistical significance was assessed using Mann Whitney U tests.
(§2) The resulting MMV030084-resistant parasites were cloned by limiting dilution ([Baker et al., 2017]) to obtain genetically homogenous cultures for further phenotyping and whole-genome sequencing. A second round of […]. […] Drug susceptibility of resistant lines was assessed using a 72 h ABS assay as described above, and a Mann Whitney U test was applied to assess statistically significant differences.
(§3) A CRISPR/Cas9 targeted gene editing strategy using an all-in-one plasmid approach was applied to introduce T1268R, I1250M and T1268R+I1250M in wild-type Dd2-B2 parasites or to produce a TKL3 KO line by inserting a stop codon and frameshift at amino acid position 1268. […] WR99210 (2.5 nM) was added to the culture medium 24 h after electroporation to select for successfully transfected parasites and was maintained in the medium until edited parasites were detected. […]

The subject of a further test is ed. Dd2-B2 TKL3T1268R. Nature of the test: 72-h ABS assay, CRISPR/Cas9-edited line. Format: cell-based. The settings on record: Plasmodium falciparum, parent Dd2-B2 wild-type. How it is done: as §1, §2, §3
The next test has as its system Pf 3D7-A10 ABS parasites. Nature of the test: 72-h ABS growth inhibition assay, 3D7-A10. In kind it is cell-based. The settings on record: Plasmodium falciparum, 3D7, Line 3D7-A10 wild-type. The protocol:
Synchronicity was achieved using three rounds of sorbitol treatment on early rings, spaced 48 h apart, followed by magnetic purification of segmented schizonts following the final sorbitol treatment. […] Assays were repeated on at least three independent occasions (each with technical duplicates) and statistical significance was assessed using Mann Whitney U tests.

The test system of test [2] is NF54 CDPK1T145M mutant line. Description: ABS susceptibility, CDPK1 gatekeeper mutant line. Format: cell-based. The settings on record: Plasmodium falciparum, NF54, read-out: Mean IC50. The protocol: as §1

Entries after “also recorded” stand apart in the source; their conditions may differ.

T1 sequence (Q8I719 whole entry): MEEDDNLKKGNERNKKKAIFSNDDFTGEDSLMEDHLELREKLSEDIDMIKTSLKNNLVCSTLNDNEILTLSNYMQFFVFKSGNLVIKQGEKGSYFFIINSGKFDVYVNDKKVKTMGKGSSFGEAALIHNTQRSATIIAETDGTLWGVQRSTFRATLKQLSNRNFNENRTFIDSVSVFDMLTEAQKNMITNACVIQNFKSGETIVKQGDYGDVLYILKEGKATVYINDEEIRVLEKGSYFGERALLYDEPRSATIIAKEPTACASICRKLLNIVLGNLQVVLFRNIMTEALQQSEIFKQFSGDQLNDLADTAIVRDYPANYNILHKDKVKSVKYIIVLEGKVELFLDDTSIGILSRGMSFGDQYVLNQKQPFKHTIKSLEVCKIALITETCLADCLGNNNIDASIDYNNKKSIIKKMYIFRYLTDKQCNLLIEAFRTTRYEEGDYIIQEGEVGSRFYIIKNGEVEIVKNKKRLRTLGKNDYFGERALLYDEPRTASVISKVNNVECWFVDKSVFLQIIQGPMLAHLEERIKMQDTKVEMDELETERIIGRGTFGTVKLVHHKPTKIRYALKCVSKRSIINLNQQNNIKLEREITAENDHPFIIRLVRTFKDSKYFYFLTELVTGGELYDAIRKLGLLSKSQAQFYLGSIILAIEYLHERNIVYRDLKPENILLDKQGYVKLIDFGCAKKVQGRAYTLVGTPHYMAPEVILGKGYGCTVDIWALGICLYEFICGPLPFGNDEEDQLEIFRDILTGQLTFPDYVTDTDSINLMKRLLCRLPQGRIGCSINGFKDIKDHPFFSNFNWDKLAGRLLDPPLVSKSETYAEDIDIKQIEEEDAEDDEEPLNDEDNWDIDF

Consider `CC(C)(CN)c1nc(-c2ccc(Cl)c(O)c2)c(-c2ccncc2)[nH]1` [MMV030084], for which the “Activity against female gametes” value with Pf NF54 female gametes is on record as “ambiguous results; also recorded: little to no activity”. Moreover, in test [1], the “PKG pull-down by bead-bound compound” value is “pulled down”. In addition, the IC50 stood at 307 nM with ed. Dd2-B2 TKL3I1250M, 317 nM in the test with ed. Dd2-B2 TKL3T1268R, 178 nM in the test with Pf 3D7-A10 ABS parasites and 90 nM in test [2].

A word on the IC50: it is the concentration at which inhibition is half-maximal.

The values above are taken from PMC7369637, “Inhibition of Resistance-Refractory P. falciparum Kinase PKG Delivers Prophylactic, Blood Stage, and Transmission-Blocking Antiplasmodial Activity” (Cell Chemical Biology, 2020).
